Laboratory results reported in ChEMBL document CHEMBL1155893 (J Med Chem, 2008).

How the values were obtained:
Format in all cases: functional, organism-based
Plasmodium falciparum [1] = experiment: Antimalarial activity against multidrug-resistant Plasmodium falciparum TM91C235
Plasmodium falciparum [2] = experiment: Antimalarial activity against chloroquine-resistant Plasmodium falciparum W2
Plasmodium falciparum [3] = experiment: Antimalarial activity against chloroquine,mefloquine-sensitive Plasmodium falciparum D6

Row | Compound | IC50 (Plasmodium falciparum [1]) | IC90 (Plasmodium falciparum [1]) | IC50 (Plasmodium falciparum [2]) | IC90 (Plasmodium falciparum [2]) | IC50 (Plasmodium falciparum [3]) | IC90 (Plasmodium falciparum [3])
1 | COC(=O)CC[C@@H](C)[C@H]1CC[C@H]2[C@@H]3[C@H](OC(C)=O)C[C@@H]4C[C@@H](NCCNc5ccnc6cc(Cl)ccc56)CC[C@]4(C)[C@H]3C[C@H](OC(C)=O)[C@]12C | 11 nM | 25 nM | 3.38 nM | 6.74 nM | 6.17 nM | 10.4 nM
2 | CC(=O)O[C@@H]1CC[C@@]2(C)[C@@H](C1)C[C@@H](OC(C)=O)[C@@H]1[C@@H]2C[C@H](OC(C)=O)[C@]2(C)[C@@H]([C@H](C)CCC(=O)NCCNc3ccnc4cc(Cl)ccc34)CC[C@@H]12 | 28.8 nM | 34.8 nM | 48.9 nM | 70.6 nM | 19 nM | 21.1 nM
3 | Clc1ccc2c(NCCCCCNCC34CC5CC(CC(C5)C3)C4)ccnc2c1 | 75.3 nM | 161 nM | 131 nM | 168 nM | 15.2 nM | 18.9 nM
4 | CC(=O)O[C@@H]1CC[C@@]2(C)[C@@H](C1)C[C@@H](OC(C)=O)[C@@H]1[C@@H]2C[C@H](OC(C)=O)[C@]2(C)[C@@H]([C@H](C)CCCNCCNc3ccnc4cc(Cl)ccc34)CC[C@@H]12 | 27.7 nM | 77.9 nM | 11.4 nM | 32.5 nM | 16.9 nM | 34.2 nM
5 | COC(=O)CC[C@@H](C)[C@H]1CC[C@H]2[C@@H]3[C@H](OC(C)=O)C[C@@H]4C[C@H](OCCNc5ccnc6cc(Cl)ccc56)CC[C@]4(C)[C@H]3C[C@H](OC(C)=O)[C@]12C | 50.5 nM | 72.8 nM | 111 nM | 147 nM | 33 nM | 99.3 nM
6 | CC(=O)O[C@@H]1CC[C@@]2(C)[C@@H](C1)C[C@@H](OC(C)=O)[C@@H]1[C@@H]2C[C@H](OC(C)=O)[C@]2(C)[C@@H]([C@H](C)CCC(=O)Nc3ccnc4cc(Cl)ccc34)CC[C@@H]12 | 3510 nM | 6060 nM | 7190 nM |  | 3020 nM | 6920 nM
7 | CC(=O)O[C@@H]1CC[C@@]2(C)[C@@H](C1)C[C@@H](OC(C)=O)[C@@H]1[C@@H]2C[C@H](OC(C)=O)[C@]2(C)[C@@H]([C@H](C)CCCNc3ccnc4cc(Cl)ccc34)CC[C@@H]12 | 30.1 nM | 68.6 nM | 140 nM | 1180 nM | 15.8 nM | 70.5 nM
8 | Clc1ccc2c(NCCNCC34CC5CC(CC(C5)C3)C4)ccnc2c1 | 8.73 nM | 14.9 nM | 8.4 nM | 15.2 nM | 4.26 nM | 8.23 nM
9 | O=C(CC12CC3CC(CC(C3)C1)C2)NCCCNc1ccnc2cc(Cl)ccc12 | 201 nM | 464 nM | 337 nM | 853 nM | 106 nM | 294 nM
10 | O=C(CC12CC3CC(CC(C3)C1)C2)NCCCCCNc1ccnc2cc(Cl)ccc12 | 602 nM | 777 nM | 518 nM | 660 nM | 267 nM | 347 nM
11 | O=C(NCCCNc1ccnc2cc(Cl)ccc12)C12CC3CC(CC(C3)C1)C2 | 525 nM | 787 nM | 878 nM | 1360 nM | 214 nM | 370 nM
12 | O=C(CC12CC3CC(CC(C3)C1)C2)NCCNc1ccnc2cc(Cl)ccc12 | 238 nM | 383 nM | 254 nM | 397 nM | 78.5 nM | 157 nM
13 | O=C(NCCCCCNc1ccnc2cc(Cl)ccc12)C12CC3CC(CC(C3)C1)C2 | 765 nM | 984 nM | 884 nM | 1410 nM | 511 nM | 632 nM
14 | Clc1ccc2c(NCCNCCC34CC5CC(CC(C5)C3)C4)ccnc2c1 | 17.8 nM | 24.4 nM | 15.7 nM | 31 nM | 8.59 nM | 13.7 nM
15 | Clc1ccc2c(NCCCCCNCCC34CC5CC(CC(C5)C3)C4)ccnc2c1 | 67.2 nM | 168 nM | 160 nM | 311 nM | 21.9 nM | 24.8 nM
16 | Clc1ccc2c(NCCCN(CCC34CC5CC(CC(C5)C3)C4)CCC34CC5CC(CC(C5)C3)C4)ccnc2c1 | 109 nM | 171 nM | 83.2 nM | 132 nM | 52.2 nM | 78.3 nM
17 | COC(=O)CC[C@@H](C)[C@H]1CC[C@H]2[C@@H]3[C@H](OC(C)=O)C[C@@H]4C[C@H](NCCNc5ccnc6cc(Cl)ccc56)CC[C@]4(C)[C@H]3C[C@H](OC(C)=O)[C@]12C | 12.8 nM | 24.4 nM | 5.74 nM | 11.2 nM | 9.47 nM | 12.3 nM
18 | COC(=O)CC[C@@H](C)[C@H]1CC[C@H]2[C@@H]3[C@H](OC(C)=O)C[C@@H]4C[C@H](Nc5ccnc6cc(Cl)ccc56)CC[C@]4(C)[C@H]3C[C@H](OC(C)=O)[C@]12C | 30.1 nM | 68.6 nM | 108 nM | 563 nM | 10.7 nM | 20.7 nM
19 | COC(=O)CC[C@@H](C)[C@H]1CC[C@H]2[C@@H]3[C@H](OC(C)=O)C[C@@H]4C[C@H](OCCNCCNc5ccnc6cc(Cl)ccc56)CC[C@]4(C)[C@H]3C[C@H](OC(C)=O)[C@]12C | 32.2 nM | 76 nM | 17.8 nM | 24.6 nM | 14.1 nM | 22.8 nM
20 | CCCNC(=O)CC[C@@H](C)[C@H]1CC[C@H]2[C@@H]3[C@H](OC(C)=O)C[C@@H]4C[C@H](Nc5ccnc6cc(Cl)ccc56)CC[C@]4(C)[C@H]3C[C@H](OC(C)=O)[C@]12C | 99.5 nM | 367 nM | 209 nM | 1850 nM | 68.2 nM | 98.2 nM
21 | Clc1ccc2c(NCCCNCC34CC5CC(CC(C5)C3)C4)ccnc2c1 | 7.39 nM | 20.2 nM | 12.1 nM | 20.1 nM | 3.83 nM | 6.41 nM
22 | O=C(NCCNc1ccnc2cc(Cl)ccc12)C12CC3CC(CC(C3)C1)C2 | 439 nM | 685 nM | 485 nM | 724 nM | 202 nM | 465 nM
23 | Clc1ccc2c(NCCCNCCC34CC5CC(CC(C5)C3)C4)ccnc2c1 | 42.1 nM | 171 nM | 33.7 nM | 56.1 nM | 11.4 nM | 23.3 nM
24 | Clc1ccc2c(NCCN(CCC34CC5CC(CC(C5)C3)C4)CCC34CC5CC(CC(C5)C3)C4)ccnc2c1 | 101 nM | 225 nM | 78.2 nM | 113 nM | 51.9 nM | 70 nM
25 | C[C@@H]1CC[C@H]2[C@@H](C)C(=O)O[C@@H]3O[C@@]4(C)CC[C@@H]1[C@]32OO4 [ARTEMISININ] | 13 nM | 17.4 nM | 6.7 nM | 11.5 nM | 9 nM | 12.8 nM
26 | CCN(CC)CCCC(C)Nc1ccnc2cc(Cl)ccc12 (stereo not given) [CHLOROQUINE] |  |  |  | 530 nM |  | 16.4 nM
27 | O[C@@H](c1cc(C(F)(F)F)nc2c(C(F)(F)F)cccc12)[C@H]1CCCCN1 [MEFLOQUINE] |  | 106 nM |  | 14.7 nM | 11.2 nM | 28.1 nM
